Structures can show the parent of a compound that is named as a salt.
Tests used:
[1] = system: sodium channel (ENaC), canine bronchial epithelia; assay: Sodium channel blocking activity: inhibition of short circuit current (ISC) in airway epithelial monolayers in Ussing chambers; format: cell-based; conditions: for Fold Amiloride*: potency in canine bronchial epithelia relative to amiloride
Protocol: One assay used to assess mechanism of action and/or potency of the compounds of the present invention involves the determination of lumenal drug inhibition of airway epithelial sodium currents measured under short circuit current (ISC) using airway epithelial monolayers mounted in Ussing chambers. Cells obtained from freshly excised human, dog, sheep or rodent airways are seeded onto porous 0.4 micron Snapwell™ Inserts (CoStar), cultured at air-liquid interface (ALI) conditions in hormonally defined media, and assayed for sodium transport activity (ISC) while bathed in Krebs Bicarbonate Ringer (KBR) in Using chambers. All test drug additions are to the lumenal bath with half-log dose addition protocols (from 1×10^−11 M to 3×10^−5 M), and the cumulative change in ISC (inhibition) recorded. All drugs are prepared in dimethyl sulfoxide as stock solutions at a concentration of 1×10^−2 M and stored at −20° C. Eight preparations are typically run in parallel; two preparations per run incorporate amiloride and/or benzamil as positive controls. After the maximal concentration (5×10^−5 M) is administered, the lumenal bath is exchanged three times with fresh drug-free KBR solution, and the resultant ISC measured after each wash for approximately 5 minutes in duration. Reversibility is defined as the percent return to the baseline value for sodium current after the third wash. All data from the voltage clamps are collected via a computer interface and analyzed off-line.
Dose-effect relationships for all compounds are considered and analyzed by the Prism 3.0 program. IC50 values, maximal effective concentrations, and reversibility are calculated and compared to amiloride and benzamil as positive controls.
Amiloride was also tested in this assay as a positive control. The results for the compounds of the present invention are reported as fold-enhancement values relative to amiloride.

Structure (SMILES)	melting point	further results
Cl.N=C(NCCCCc1ccc(OCC(O)C(O)CO)cc1)NC(=O)c1nc(Cl)c(N)nc1N (stereo not drawn)	148 °C (dec.)	
CC(O)COc1ccc(CCCCNC(=N)NC(=O)c2nc(Cl)c(N)nc2N)cc1 (stereo not drawn) (as salt: hydrochloride) [Example 18, 4-[4-(2-Hydroxypropyloxy)phenyl)]butylamidino-3,5-diamino-6-chloropyrazinecarboxamide hydrochloride]	212 to 214 °C	
COCCOCCOc1ccc(CCCCNC(=N)NC(=O)c2nc(Cl)c(N)nc2N)cc1 (as salt: hydrochloride) [drawing 50: n=2, 4-[4-(1,4,7-Trioxaoct-1-yl)phenyl]-butyl amidino-3,5-diamino-6-chloropyrazinecarboxamide hydrochloride]	110 to 125 °C	
N=C(NCCCCc1ccc(N)cc1)NC(=O)c1nc(Cl)c(N)nc1N (as salt: hydrochloride) [drawing 60: R=NH2, N=0, 4-[4-(4-Amino)phenyl)]butylamidino-3,5-diamino-6-chloropyrazinecarboxamide hydrochloride]	195 to 200 °C	
N=C(NCCCCc1ccc(OCCN)cc1)NC(=O)c1nc(Cl)c(N)nc1N (as salt: hydrochloride) [drawing 61: R=NH2, n=2, 4-[4-(2-aminoethyloxy)phenyl)butylamidino-3,5-diamino-6-chloropyrazinecarboxamide hydrochloride]	> 178 °C (dec.)	
N=C(NCCCCc1cccc(OCC(O)CO)c1)NC(=O)c1nc(Cl)c(N)nc1N (stereo not drawn) (as salt: hydrochloride) [drawing 69: R=CH2OH, Meta, 4-[3-(2-,3-Dihydroxypropyloxyl)phenyl)]butylamidino-3,5-diamino-6-chloropyrazinecarboxamide hydrochloride]	91 to 93 °C	
N=C(NCCCCc1ccccc1OCC(O)CO)NC(=O)c1nc(Cl)c(N)nc1N (stereo not drawn) (as salt: hydrochloride) [drawing 69: R=CH2OH, Ortho, 4-[2-(2-,3-Dihydroxypropyloxy)phenyl)]butylamidino-3,5-diamino-6-chloropyrazinecarboxamide hydrochloride]	200 to 205 °C	
N=C(NCCCCc1cccc(OCCO)c1)NC(=O)c1nc(Cl)c(N)nc1N (as salt: hydrochloride) [drawing 69: R=H, Meta, 4-[3-(2-Hydroxyethyloxy)phenyl)butylamidino-3,5-diamino-6-chloropyrazinecarboxamide hydrochloride]	161 to 163 °C (dec.)	
N=C(NCCCCc1ccc(OCCOC2CCCCO2)cc1)NC(=O)c1nc(Cl)c(N)nc1N (stereo not drawn) [Example 20]	161 °C	
N=C(N)c1ccc(CCCCNC(N)=NC(=O)c2nc(Cl)c(N)nc2N)cc1 [drawing 62: X=C═NH, Y=NH2, 4-{4-[N′-(3,5-Diamino-6-chloropyrazine-2-carbonyl)guanidino]butyl}benzamidine]	140 to 170 °C (dec.)	Fold Amiloride* ([1]; Example 43): 53.2 ± 19.3 (2) fold
Cl.Cl.N=C(N)NCCOc1ccc(CCCCNC(=N)NC(=O)c2nc(Cl)c(N)nc2N)cc1 [drawing 64: X=NH—C(═NH)—NH2, N-(3,5-diamino-6-chloropyrazine-2-carbonyl)-N′-{4-[4-(2-guanidinoethoxy)-phenyl]butyl}guanidine dihydrochloride]	223 to 230 °C	Fold potency relative to amiloride ([1]; Example 51): 98.0 ± 58.5 (18); Fold Amiloride* ([1]; Example 45): 120.6 ± 60.8 (11) fold
Cl.Cl.N=C(NCCCCc1ccc(OCCN(C[C@@H](O)[C@@H](O)CO)C[C@@H](O)[C@@H](O)CO)cc1)NC(=O)c1nc(Cl)c(N)nc1N [drawing 67: O CH2 CH2 NR R^a,c (r18), N-[4-(4-{2-[bis-((2R,3S)-2,3,4-trihydroxybutyl)amino]ethoxy}phenyl)-butyl]-N′-(3,5-diamino-6-chloropyrazine-2-carbonyl)guanidine dihydrochloride]	93 to 96 °C (dec.)	Fold Amiloride* ([1]; Example 48): 56.0 (1) fold
N=C(NCCCCc1ccccc1OCC(O)CO)NC(=O)c1nc(Cl)c(N)nc1N (stereo not drawn) [drawing 69: R=CH2OH, Ortho, 4-[2-(2-,3-Dihydroxypropyloxy)phenyl)]butylamidino-3,5-diamino-6-chloropyrazinecarboxamide hydrochloride]		Fold Amiloride* ([1]; Example 50): 24.0 ± 1.0 (2) fold
N=C(NCCCCc1cccc(OCCO)c1)NC(=O)c1nc(Cl)c(N)nc1N [drawing 69: R=H, Meta, 4-[3-(2-Hydroxyethyloxy)phenyl)butylamidino-3,5-diamino-6-chloropyrazinecarboxamide hydrochloride]		Fold Amiloride* ([1]; Example 50): 41.1 ± 8.5 (2) fold

Reference: patent US10167266B2, “Sodium channel blockers” (Parion Sciences, Inc., priority 2002, dated 2019)
